Source: patent publication US20240041036A1, “BIO PESTICIDAL COMPOSITION CONTAINS NOVEL NONANOATE ESTERS OF SUGARS AND SUGAR ALCOHOLS TO CONTROL LEPIDOPTERA, HEMIPTERA AND THYSANOPTERA INSECTS” (FERTIS INDIA PVT. LTD., priority 2020, published 2024)

Key:
Assay in all cases: Field experiment on cotton sucking insects, population count
Format in all cases: in vivo
[1] = test system: thrips (Scirtothrips dorsails); conditions: for Thrips population count after spray: 0.5 g/L; for Reduction of thrips population: after 24 h, dose not stated
Description: (§1) A field experiment was conducted with EN2 formulation on cotton sucking insects viz. thrips (Scirtothrips dorsails), aphids (Aphis gossypii), jassids (Amrascabi guttula) and whitefly (Bemisia tabaci), as shown in FIG. 25. Two benchmark insecticides were used as control viz. Thiamethoxam (a broad spectrum insecticide) and Acetamiprid (effective to cotton sucking pest). Three doses of EN 2 formulation (for 1 kg formulation EN 800 g+Arginine 80 g+Silwet20 g+Tergitol 20 g+Water 150 g) was used for this study viz. […] Initially the population of the pests (pre count) was assessed before spraying. […] The number of major sucking pests (2 leaves from top, one from middle and 2 leaves from bottom) in 5 tagged plants/treatment was recorded at 24 h before the spray and after 24 h, 3rd, 6th and 9th day after spray. The data was pooled and average population calculated.

[2] = test system: whitefly (Bemisia tabaci); conditions: 0.5 g/L
Description: as §1

[3] = test system: jassids (Amrascabi guttula); conditions: for Jassids population count after spray: 0.5 g/L
Description: as §1, with “pest).” for “pest). Three doses of EN 2 formulation (for 1 kg formulation EN 800 g+Arginine 80 g+Silwet20 g+Tergitol 20 g+Water 150 g) was used for this study viz.”

## CN1COCN(Cc2cnc(Cl)s2)/C1=N\[N+](=O)[O-] [Thiamethoxam]
[1]; 3rd day after spray
  Thrips population count after spray: 3.46
[1]; 6th day after spray
  Thrips population count after spray: 5.33
[1]; 9th day after spray
  Thrips population count after spray: 3.76
[1]; 24 h after spray
  Thrips population count after spray: 23.7
[1]
  Reduction of thrips population: 15.9%
[2]; 3rd day after spray
  Whitefly population count after spray: 1.86
[2]; 6th day after spray
  Whitefly population count after spray: 2.46
[2]; 9th day after spray
  Whitefly population count after spray: 1.7
[2]; 24 h after spray
  Whitefly population count after spray: 7
[3]; 3rd day after spray
  Jassids population count after spray: 3.26
[3]; 6th day after spray
  Jassids population count after spray: 2
[3]; 9th day after spray
  Jassids population count after spray: 2.73
[3]; 24 hrs after spray
  Jassids population count after spray: 13.66
[3]; 3rd day after the spray
  Reduction of Jassids population: 11.8%
[3]; 9th day
  Reduction of Jassid population: 40.6%

## C/C(=N\C#N)N(C)Cc1ccc(Cl)nc1 [Acetamiprid]
[1]; 3rd day after spray
  Thrips population count after spray: 4.06
[1]; 6th day after spray
  Thrips population count after spray: 5.66
[1]; 9th day after spray
  Thrips population count after spray: 3.6
[1]; 24 h after spray
  Thrips population count after spray: 22.7
[1]
  Reduction of thrips population: 13.7%
[2]; 3rd day after spray
  Whitefly population count after spray: 1.66
[2]; 6th day after spray
  Whitefly population count after spray: 2.4
[2]; 9th day after spray
  Whitefly population count after spray: 2.13
[2]; 24 h after spray
  Whitefly population count after spray: 8.66
[3]; 3rd day after spray
  Jassids population count after spray: 3.56
[3]; 6th day after spray
  Jassids population count after spray: 2.66
[3]; 9th day after spray
  Jassids population count after spray: 3.36
[3]; 24 hrs after spray
  Jassids population count after spray: 14
